How the values were obtained:
rats = assay: forced swim test (behavioral despair assay) in rats; format: in vivo; conditions: rat
Procedure: In vivo efficacy of several illustrative inhibitors of the instant invention, (1), (3), and (4), were measured using standard forced swim test model using rat. The objective of this study was to assess the antidepressant effects of test compounds in the behavioral despair assay in rats using a modification of a method described by Porsolt R. D. et al. in Behavioural despair in rats: a new model sensitive to antidepressant treatment, Eur. J. Pharmacol., 47: 379-391, 1978; Porsolt et al., Nature 266: 730-732, 1977; and Porsolt et al., in Psychopharmacology, Olivier, Mos, and Slangen (eds) Birkhäuser Verlag, Basel, pp. 137-159, 1991. Briefly, when mice (or rats) are forced to swim in a cylinder from which no escape is possible, they readily adopt a characteristic immobile posture and make no further attempts to escape except for small movements needed to keep floating. The immobility is considered by some to reflect a “depressive mood” (Porsolt et al., Nature 266: 730-732, 1977) in which animals cease to struggle to escape the aversive situation. The immobility induced by the procedure is influenced by a wide variety of antidepressants (Porsolt et al., in Psychopharmacology, Olivier, Mos, and Slangen (eds) Birkhauser Verlag, Basel, pp. 137-159, 1991) and has a good predictive validity in that it detects antidepressants with different mechanisms of action (TCAs, SSRIs, MAOIs, and other atypical ones). The test is sensitive to muscle-relaxant (benzodiazepines) and sedative (neuroleptics) effects, leading to enhanced immobility (Porsolt et al., supra).
In a typical experiment, animals are placed singly into a cylinder (e.g. 46×30 cm) containing fresh water at about 20° C. for 6 minutes. The activity (or immobility) of the animal is measured by an observer minute by minute. In more detail, the animals were preconditioned in a pretest session, where the rats were individually forced to swim inside a vertical plexiglass cylinder containing water maintained at 19-20° C. After 15 minutes in the water, they were allowed to dry for […] in a heated enclosure. Twenty-four hours later, the compounds were administered either intraperitoneally or orally to the animals. One hour after administration of the test compound, animals were put back into the cylinder containing water. The total duration of immobility was measured during the last 4 minutes of a 6 minute test.
The results are expressed as the percentage of variation of the total duration of immobility calculated from the mean value of the vehicle-treated group (% variation=[(immobility duration of vehicle−immobility duration of test compound)/(immobility duration of vehicle)]×100%).
In order to measure the in vivo efficacy of inhibiting DAT in rats using an inhibitor of the instant invention, one test inhibitor ((1), (3), or (4)) was injected i.p. as racemic mixtures of diastereomers into the animals, at various-doses (e.g. 7.5 and […]). Sibutramine (2.0 and 2.5 mg/kg), Bupropion (7.5 and 10 mg/kg), and Imipramine (30 mg/kg) were similarly administered as controls. […] Asterisks indicate highly statistical significant results.
A fourth inhibitor, (6) was administered p.o. as a racemic mixture of diastereomers at either 35 or 75 mg/kg. Sibutramine (5.0 and 3.75 mg/kg), Bupropion (30 and 40 mg/kg), and Imipramine (100 mg/kg) were similarly administered as controls.
Similarly, (1) was also administered p.o. as a racemic mixture of enriched (95:5) diastereomer at either 35 or 75 mg/kg. […]

Sprague-Dawley rats = assay: 7 day multidose oral dosing toxicology study; format: in vivo, rat
Source text: The representative results are listed below in Table VI.

For `CC1CCN(CC2(c3ccc(Cl)cc3)CCC2)CC1COc1ccc(C(F)(F)F)cc1` (centres unmarked) [(1)], the “forced swim test efficacy versus commercial drugs (FIG. 1)” value (rats; i.p., racemic mixtures of diastereomers) was “performed equally well, if not better, than the commercial drugs Sibutramine, Bupropion, and Imipramine”, the “forced swim test efficacy versus commercial drugs (FIG. 2, FIG. 3)” value (rats; p.o., 35 or 75 mg/kg) was “performed equally well, if not better, than the commercial drugs Sibutramine, Bupropion, and Imipramine” and the “7 day multidose oral toxicology, symptoms” value (Sprague-Dawley rats; Sprague-Dawley rats n = 6 (3M/3F), oral 100 mg/kg/day, 100 mg/kg/day) was “did not display any significant symptoms”. The “7 day multidose oral toxicology, self-mutilation (number of animals)” value (Sprague-Dawley rats; n = 6, oral 200 mg/kg/day) was 1 self-mutilation and the “7 day multidose oral toxicology, self-mutilation (number of animals)” value (Sprague-Dawley rats; n = 6, oral 400 mg/kg/day) was 3 self-mutilation.

Source: patent US20100093706A1, “MULTIMEDIATOR TRANSPORTER INHIBITORS FOR USE IN TREATMENT OF CENTRAL NERVOUS SYSTEM DISORDERS” (priority 2006, published 2010)
